In patent US20110015267A1 (priority 2009, published 2011):
Entries after “also recorded” stand apart in the source; their conditions may differ. Structures can show the parent of a compound that is named as a salt.

Key:
[1] = Method B: incremental addition of magnesium valproate salt to L-carnitine inner salt solution
[2] = cited from earlier work
[3] = Conventional valproates combined with L-carnitine inner salt in water; format: physicochemical; details: for Result When Combined With L-Carnitine Inner Salt in Water: dissolution / stability behaviour of the valproate in water
Excerpt: The inventor investigated methods for the preparation of long-needed, palatable liquid compositions having quantitatively precise defined proportions of valproate and L-carnitine in water. […] Instead, oily droplets of valproic acid adhered to the formulation vessel, making it impossible to formulate compositions having quantitatively precise defined proportions of valproate. […] This lack of purity renders it impossible to weigh calculated quantities of the magnesium valproate of '850 that are required for a quantitatively precise defined formulation and formulate a composition having the corresponding quantitatively precise defined proportions of valproate and L-carnitine; the weighed quantities of the magnesium valproate of '850 will contain variable proportions of impurities that are water-soluble, partially water-soluble, and water-insoluble as well as the magnesium valproate, and the resulting formulation will contain less than quantitatively precise proportions of valproate. […] Potassium valproate, cesium valproate, and rubidium valproate were not tested, because high concentrations of potassium, cesium, and rubidium are toxic.

[4] = Sterilization of liquid dosage form by heating or filtration; format: physicochemical
Excerpt: Therefore, aqueous solutions of the invention must be prepared to be free of microbial contaminants. Most preferably, water that has been purified to meet US Pharmacopeial standards is used in preparing aqueous solutions of the invention. [U.S. Pharmacopeia, Volume 32. U.S. Pharmacopeial Convention, Rockville, Md. USP Monograph entitled “Purified Water” and chapter entitled “Water for Pharmaceutical Purposes”<1231>.] Water can be purified in known ways to be free of trace contaminants and microbes that cause undesirable side reactions when administered therapeutically to a subject. However, L-carnitine decomposes when subjected to heating. Therefore, the inventor has used aseptic processing and sterilization by filtration through a filter having a pore-size sufficiently small to allow passage of the composition of the invention through the pores but prevent passage of microbes to prepare compositions for pharmaceutical use.
A palatable liquid dosage form of the invention is divided into portions. Each portion is subjected to sterilization by (a) heating or (b) filtration through a filter membrane having a […] pore size.

[5] = cited from earlier work; remark: listed apart in the source
[6] = reported; not tested by the inventor; cited from earlier work
[7] = Solubility limit of magnesium valproate salts in purified water USP (incremental addition)
Experimental: The experiment was repeated but valproate was added as L-carnitine magnesium valproate. Incremental portions of L-carnitine magnesium valproate were added to purified water until the solubility limit was reached, as indicated by the presence of white solid in the colorless aqueous supernatant. […] The solution was divided into portions, and known masses of L-carnitine inner salt, accurately weighed, were added to provide solutions having the compositions shown in Table 2. Each solution was tested by two analysts.

[8] = with about 1,000 mg/mL L-carnitine

Magnesium valproate hydrate
pH of solution [1, 8]: near neutral

CCCC(CCC)C(=O)O [valproate]
absorption from the gastrointestinal tract ([2]; all conventional dosage forms): rapidly and nearly completely absorbed
time of peak plasma concentrations after ingestion ([2]; all conventional dosage forms): 1 to 4 h
excreted in the urine as an L-carnitine ester ([2]; humans and other mammals): 3%
metabolized by β- and ω-oxidations in mitochondria and the cytosol ([2]; humans and other mammals): 17%
metabolized in the liver by direct glucuronidation ([2]; humans and other mammals): 80%

CCCC(CCC)C(=O)O [Divalproex sodium]
Result When Combined With L-Carnitine Inner Salt in Water [3]: decomposed on addition to water

C[N+](C)(C)CC(O)CC(=O)[O-] [L-carnitine, L-Carnitine inner salt]
stability when subjected to heating [4]: decomposes

CCCC(CCC)C(=O)O [Valproic acid, 2-propylpentanoic acid]
solubility in water [5]: very slightly soluble in water
Result When Combined With L-Carnitine Inner Salt in Water ([3]; listed as valproic acid): poorly soluble in water

Calcium valproate
carcinogenicity [6]: been reported to be carcinogenic.

CCCC(CCC)C(=O)[O-].CCCC(CCC)C(=O)[O-].C[N+](C)(C)C[C@H](O)CC(=O)[O-].[Mg+2] [L-carnitine magnesium valproate, L-Carnitine magnesium valproate]
valproate concentration at the limit of solubility ([1]; in aqueous L-carnitine inner salt, about 1,000 mg/mL L-carnitine): about 150 mg/mL
appearance of solution at the limit of solubility [1, 8]: clear and colorless
odor of solution at the limit of solubility [1, 8]: no odor
pH of solution [1, 8]: near neutral
taste of solution at the limit of solubility [1, 8]: no taste
solubility limit, valproate concentration of the solution [7]: about 150 mg/mL

CCCC(CCC)C(=O)[O-].[Na+] [Sodium valproate]
Result When Combined With L-Carnitine Inner Salt in Water: solution appearance [3]: weighing. Solution was clear &
Result When Combined With L-Carnitine Inner Salt in Water [3]: rapidly adsorbed water from the atmosphere; also recorded: Sodium valproate is hygroscopic

Magnesium valproate
Result When Combined With L-Carnitine Inner Salt in Water [3]: did not dissolve completely in water; also recorded: failed to dissolve completely;
